{"source": "patent US6914045B2", "about": "“Glycopeptide antibiotics” (Wyeth Holdings Corporation, priority 2001, dated 2005)", "note": "Several values for one entry are separate records, joined by “and”; a condition that tells them apart may be missing. Identical values can stand only once.", "data": [{"system": "Staphylococcus aureus", "test": "zone of inhibition, agar well assay plate", "assay_type": "cell-based", "conditions": "25 μl of extract per 5 mm well, incubated overnight at 37° C.", "experimental": "Protocol for Assay Plate Staphylococcus aureus\nInoculate 10 mL of Tryptic Soy Broth with a loopful of slant culture, Staphylococcus aureus, and place in a stationary rack at 37° C. After 16-18 hour incubation, the Optical Density (OD) of the culture is read@A600 nm, using a 1:10 dilution. OD should be between 0.1-0.3, and if not adjust with Tryptic Soy Broth. A 40 mL sample of Nutrient Agar, pH 6.8 is inoculated with 90 ul of S. aureus culture and poured into a sterile petri dish. When the agar has solidified, wells (5 mm) are plated using an automated welling device. Wells are inoculated with 25 μl of extract and incubated overnight at 37° C. Zones of inhibition are measured and recorded the following morning.", "values": [{"smiles": "CCCC(=O)OC1C(O)C(CO)OC(OC2C(CO)OC(Oc3ccc(CC4NC(=O)C(C(C)c5ccccc5)NC(=O)CNC(=O)C(CO)NC(=O)C(C(O)C5CNC(=N)N5C5OC(CO)C(O)C(O)C5O)NC(=O)C(C(O)C5CNC(=N)N5)NC4=O)cc3)C(O)C2O)C1O", "note": "(stereo not drawn) [Example 272b, Cyclo[glycyl-β-methylphenylalanyl-O-[4-O-(3-O-butanoyl-hexopyranosyl)-hexopyranosyl]tyrosyl-3-(2-iminoimidazolidin-4-yl)seryl-3-(3-hexopyranosyl-2-iminoimidazolidin-4-yl)serylseryl]]", "Zone of Inhibition vs. S. aureus": "8 mm"}, {"smiles": "CCCCCCC(=O)OC1C(O)C(CO)OC(OC2C(CO)OC(Oc3ccc(CC4NC(=O)C(C(C)c5ccccc5)NC(=O)CNC(=O)C(CO)NC(=O)C(C(O)C5CNC(=N)N5C5OC(CO)C(O)C(O)C5O)NC(=O)C(C(O)C5CNC(=N)N5)NC4=O)cc3)C(O)C2O)C1O", "note": "(stereo not drawn) [Example 274b, Cyclo[glycyl-β-methylphenylalanyl-O-[4-O-(3-O-heptanoyl-hexopyranosyl)-hexopyranosyl]tyrosyl-3-(2-iminoimidazolidin-4-yl)seryl-3-(3-hexopyranosyl-2-iminoimidazolidin-4-yl)serylseryl]]", "Zone of Inhibition vs. S. aureus": "10 mm"}, {"smiles": "CC(C)CCC(=O)OC1C(CO)OC(OC2C(CO)OC(Oc3ccc(CC4NC(=O)C(C(C)c5ccccc5)NC(=O)CNC(=O)C(CO)NC(=O)C(C(O)C5CNC(=N)N5C5OC(CO)C(O)C(O)C5O)NC(=O)C(C(O)C5CNC(=N)N5)NC4=O)cc3)C(O)C2O)C(O)C1O", "note": "(stereo not drawn) [Example 270c, Cyclo[glycyl-β-methylphenylalanyl-O-[4-O-[4-O-(4-methylpentanoyl)hexopyranosyl]-hexopyranosyl]tyrosyl-3-(2-iminoimidazolidin-4-yl)seryl-3-(3-hexopyranosyl-2-iminoimidazolidin-4-yl)serylseryl]]", "Zone of Inhibition vs. S. aureus": "11 mm"}, {"smiles": "CCC(C)CC(=O)OC1C(CO)OC(OC2C(CO)OC(Oc3ccc(CC4NC(=O)C(C(C)c5ccccc5)NC(=O)CNC(=O)C(CO)NC(=O)C(C(O)C5CNC(=N)N5C5OC(CO)C(O)C(O)C5O)NC(=O)C(C(O)C5CNC(=N)N5)NC4=O)cc3)C(O)C2O)C(O)C1O", "note": "(stereo not drawn) [Example 271c, Cyclo[glycyl-β-methylphenylalanyl-O-[4-O-[4-O-(3-methylpentanoyl)hexopyranosyl]-hexopyranosyl]tyrosyl-3-(2-iminoimidazolidin-4 yl)seryl-3-(3-hexopyranosyl-2-iminoimidazolidin-4-yl)serylseryl]]", "Zone of Inhibition vs. S. aureus": "12 mm"}, {"smiles": "CCCCCCC(=O)OC1C(OC2C(CO)OC(Oc3ccc(CC4NC(=O)C(C(C)c5ccccc5)NC(=O)CNC(=O)C(CO)NC(=O)C(C(O)C5CNC(=N)N5C5OC(CO)C(O)C(O)C5O)NC(=O)C(C(O)C5CNC(=N)N5)NC4=O)cc3)C(O)C2O)OC(CO)C(O)C1O", "note": "(stereo not drawn) [Example 274a, Cyclo[glycyl-β-methylphenylalanyl-O-[4-O-(2-O-heptanoyl-hexopyranosyl)-hexopyranosyl]tyrosyl-3-(2-iminoimidazolidin-4-yl)seryl-3-(3-hexopyranosyl-2-iminoimidazolidin-4-yl)serylseryl]]", "Zone of Inhibition vs. S. aureus": "9 mm"}, {"smiles": "CCCCCC(=O)OC1C(O)C(CO)OC(OC2C(CO)OC(Oc3ccc(CC4NC(=O)C(C(C)c5ccccc5)NC(=O)CNC(=O)C(CO)NC(=O)C(C(O)C5CNC(=N)N5C5OC(CO)C(O)C(O)C5O)NC(=O)C(C(O)C5CNC(=N)N5)NC4=O)cc3)C(O)C2O)C1O", "note": "(stereo not drawn) [Example 273b, Cyclo[glycyl-β-methylphenylalanyl-O-[4-O-(3-O-hexanoyl-hexopyranosyl)-hexopyranosyl]tyrosyl-3-(2-iminoimidazolidin-4-yl)seryl-3-(3-hexopyranosyl-2-iminoimidazolidin-4-yl)serylseryl]]", "Zone of Inhibition vs. S. aureus": "9 mm and 8 mm"}]}]}
